This note sets out measurements from ChEMBL document CHEMBL2010706, “Microfluidic technology: an economical and versatile approach for the synthesis of O-(2-[18F]fluoroethyl)-L-tyrosine ([18F]FET)” (Bioorg Med Chem Lett, 2012).

The nature of data set [1]: Drug uptake in mouse EMT6 tumor xenografted in Balb/c mouse assessed per mg of protein after 15 mins by PET analysis. It counts as ADME, Neoplasm. The settings on record: in vivo, 0.25 h.
A short description of data set [2]: Drug uptake in mouse EMT6 tumor xenografted in Balb/c mouse assessed per mg of protein after 100 mins by PET analysis. It counts as ADME, Neoplasm. The settings on record: in vivo.
A short description of data set [3]: Drug uptake in mouse EMT6 tumor xenografted in Balb/c mouse after 30 mins by PET analysis. The class given is ADME, Neoplasm. The settings on record: in vivo, 0.5 h.
Data set [4] can be described thus: Drug uptake in mouse EMT6 tumor xenografted in Balb/c mouse after 60 mins by PET analysis. The class given is ADME, Neoplasm. The settings on record: in vivo, 1 h.
The subject of data set [5] is Muscle tissue. Put plainly: Drug uptake in Balb/c mouse muscle after 10 mins by PET analysis. It counts as ADME, tissue-based. The settings on record: in vivo.
Data set [6] has as its system Muscle tissue. Briefly: Drug uptake in Balb/c mouse muscle after 30 to 60 mins by PET analysis. It counts as ADME, tissue-based. The settings on record: in vivo.
In data set [7] the test system is Nucleic Acid. Briefly: Ratio of drug uptake in tumor to muscle of Balb/c mouse after 60 mins […] by PET analysis. It counts as ADME, nucleic-acid assay. The settings on record: in vivo, 1 h.

With `N[C@@H](Cc1ccc(OCC[18F])cc1)C(=O)O` [FLORETYROSINE F18], the Drug uptake in data set [1] is 105 %ID; in data set [2] it was 60 %ID; in data set [5], “Active”; in data set [6], “Not Active”. Also, the SUV in data set [3] stood at 1.28; in data set [4] it was 1.21. For the same molecule, in data set [7], the Ratio is 4.04.
